Patent US10597388B2, “Pyridazinone herbicides” (FMC CORPORATION, priority 2014, dated 2020)

Columns and labels:
Type in all cases: in vivo
corn (Zea mays) = assay: Test A greenhouse herbicide test, pre- and postemergence; conditions: Postemergence; for Plant response rating, Corn: 125 g ai/ha; for Corn plant response rating: 500 g ai/ha, 0 to 100 scale, 0 is no effect, 100 is complete control
In short: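 Visual injury ratings, 0 (no effect) to 100 (complete control), versus untreated plants after roughly 10 d in a greenhouse. Compounds, formulated in a surfactant-containing non-phytotoxic solvent, were sprayed on loam–sand soil after sowing (pre) or on one- to two-leaf plants 2–10 cm tall (post).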

[1] = test system: barnyardgrass (Echinochloa crus-galli); assay: Test B flooded paddy test; conditions: 250 g ai/ha, Flood; visual rating on scale of 0 to 100 where 0 is no effect and 100 is complete control; 13 to 15 d after treatment
In short: (§1)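 Ratings use a 0-100 visual scale, where 100 is complete control, and compare treated plants with controls after 13 to 15 d of greenhouse growth. Compound went straight into paddy water kept 3 cm over the soil surface, applied to seedlings at the 2-leaf stage.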

[2] = test system: ducksalad (Heteranthera limosa); assay: Test B flooded paddy test; conditions: 250 g ai/ha, Flood; visual rating on scale of 0 to 100 where 0 is no effect and 100 is complete control; 13 to 15 d after treatment
In short: as §1

rice (Oryza sativa) = assay: Test B flooded paddy test; conditions: 250 g ai/ha, Flood; visual rating on scale of 0 to 100 where 0 is no effect and 100 is complete control; 13 to 15 d after treatment
In short: as §1

[3] = test system: sedge, umbrella (small-flower umbrella sedge, Cyperus difformis); assay: Test B flooded paddy test; conditions: 250 g ai/ha, Flood; visual rating on scale of 0 to 100 where 0 is no effect and 100 is complete control; 13 to 15 d after treatment
In short: as §1

[4] = test system: chickweed (common chickweed, Stellaria media); assay: Test C greenhouse herbicide test, postemergence
In short: (§2)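 Ratings are visual scores from 0 (no effect) to 100 (complete control), made against controls 13–15 d after treatment. Postemergence sprays were applied in the greenhouse to plants 2–18 cm tall (1- to 4-leaf stage) in peat-moss/vermiculite potting medium.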

kochia (Kochia scoparia) = assay: Test C greenhouse herbicide test, postemergence
In short: as §2

[5] = test system: oat, wild (wild oat, Avena fatua); assay: Test C greenhouse herbicide test, postemergence
In short: as §2

[6] = visual rating after approx. 10 d, 0 to 100 scale (0 no effect, 100 complete control)
[7] = Postemergence, 31 g ai/ha, 0 to 100 scale (0 no effect, 100 complete control)
[8] = Postemergence, 125 g ai/ha, scale 0 to 100, 0 is no effect, 100 is complete control
[9] = Postemergence, 250 g ai/ha, scale 0 to 100, 0 no effect, 100 complete control, 13 to 15 d
[10] = postemergence, 62 g ai/ha, scale 0 to 100, 0 no effect, 100 complete control
[11] = 0 to 100 scale where 0 is no effect and 100 is complete control

Compound: CC(=O)Oc1c(C)nn(C)c(=O)c1-c1c(C)sc2c(C)cc(C)cc12 [Compound 27]
- Plant response rating, Corn (corn (Zea mays); [6]): 0
- Corn plant response rating (corn (Zea mays)): 20
- Plant response rating, Barnyardgrass [1]: 30
- Plant response rating, Ducksalad [2]: 30
- Plant response rating, Rice (rice (Oryza sativa)): 40
- Plant response rating, Sedge, Umbrella [3]: 80
- Chickweed plant response rating [4, 7]: 95
- Plant response rating, Chickweed [4, 8]: 100
- Plant response rating, Chickweed [4, 9]: 100
- Chickweed plant response rating [4, 10]: 100
- Kochia plant response rating (kochia (Kochia scoparia); [7]): 75
- Plant response rating, Kochia (kochia (Kochia scoparia); [8]): 90
- Plant response rating, Kochia (kochia (Kochia scoparia); [9]): 90
- Kochia plant response rating (kochia (Kochia scoparia); [10]): 80
- Oat, Wild plant response rating [5, 7]: 85
- Plant response rating, Oat, Wild [5, 8]: 95
- Plant response rating, Oat, Wild [5, 9]: 100
- Oat, Wild plant response rating [5, 10]: 95

Compound: CCC(=O)Oc1c(C)nn(C)c(=O)c1-c1c(C)sc2c(C)cc(C)cc12 [Compound 28]
- Plant response rating, Corn (corn (Zea mays); [6]): 0
- Corn plant response rating (corn (Zea mays)): 20
- Plant response rating, Barnyardgrass [1]: 60
- Plant response rating, Ducksalad [2]: 80
- Plant response rating, Rice (rice (Oryza sativa)): 40
- Plant response rating, Sedge, Umbrella [3]: 95
- Chickweed plant response rating [4, 7]: 95
- Plant response rating, Chickweed [4, 8]: 98
- Plant response rating, Chickweed [4, 9]: 95
- Chickweed plant response rating [4, 10]: 95
- Kochia plant response rating (kochia (Kochia scoparia); [7]): 70
- Plant response rating, Kochia (kochia (Kochia scoparia); [8]): 95
- Plant response rating, Kochia (kochia (Kochia scoparia); [9]): 100
- Kochia plant response rating (kochia (Kochia scoparia); [10]): 70
- Oat, Wild plant response rating [5, 7]: 95
- Plant response rating, Oat, Wild [5, 8]: 100
- Plant response rating, Oat, Wild [5, 9]: 100
- Oat, Wild plant response rating [5, 10]: 95

Compound: COc1nn(C)c(=O)c(-c2c(C)sc3ccccc23)c1O [Compound 33]
- Plant response rating, Corn (corn (Zea mays); [6]): 0
- Corn plant response rating (corn (Zea mays)): 10
- Plant response rating, Barnyardgrass [1]: 0
- Plant response rating, Ducksalad [2]: 0
- Plant response rating, Rice (rice (Oryza sativa)): 0
- Plant response rating, Sedge, Umbrella [3]: 0
- Chickweed plant response rating [4, 7]: 85
- Plant response rating, Chickweed [4, 8]: 90
- Plant response rating, Chickweed [4, 9]: 95
- Chickweed plant response rating [4, 10]: 90
- Kochia plant response rating (kochia (Kochia scoparia); [7]): 20
- Plant response rating, Kochia (kochia (Kochia scoparia); [8]): 40
- Plant response rating, Kochia (kochia (Kochia scoparia); [9]): 50
- Kochia plant response rating (kochia (Kochia scoparia); [10]): 5
- Oat, Wild plant response rating [5, 7]: 35
- Plant response rating, Oat, Wild [5, 8]: 40
- Plant response rating, Oat, Wild [5, 9]: 45
- Oat, Wild plant response rating [5, 10]: 30

Compound: COc1nn(C)c(=O)c(-c2c(C)ccc3ccccc23)c1OC(=O)OC(C)C [Compound 36]
- Plant response rating, Corn (corn (Zea mays); [6]): 20
- Corn plant response rating (corn (Zea mays)): 40
- Plant response rating, Barnyardgrass [1]: 0
- Plant response rating, Ducksalad [2]: 30
- Plant response rating, Rice (rice (Oryza sativa)): 20
- Plant response rating, Sedge, Umbrella [3]: 70
- Chickweed plant response rating [4, 7]: 80
- Plant response rating, Chickweed [4, 8]: 95
- Plant response rating, Chickweed [4, 9]: 95
- Chickweed plant response rating [4, 10]: 95
- Kochia plant response rating (kochia (Kochia scoparia); [7]): 50
- Plant response rating, Kochia (kochia (Kochia scoparia); [8]): 55
- Plant response rating, Kochia (kochia (Kochia scoparia); [9]): 90
- Kochia plant response rating (kochia (Kochia scoparia); [10]): 55
- Oat, Wild plant response rating [5, 7]: 50
- Plant response rating, Oat, Wild [5, 8]: 65
- Plant response rating, Oat, Wild [5, 9]: 85
- Oat, Wild plant response rating [5, 10]: 60

Compound: CCC(=O)Oc1c(C)nn(C)c(=O)c1-c1c(C)sc2ccc(C)cc12 [Compound 42]
- Plant response rating, Corn (corn (Zea mays); [11]): 0
- Corn plant response rating (corn (Zea mays)): 20
- Plant response rating, Barnyardgrass [1]: 0
- Plant response rating, Ducksalad [2]: 0
- Plant response rating, Rice (rice (Oryza sativa)): 0
- Plant response rating, Sedge, Umbrella [3]: 0
- Chickweed plant response rating [4, 7]: 90
- Plant response rating, Chickweed [4, 8]: 100
- Plant response rating, Chickweed [4, 9]: 100
- Chickweed plant response rating [4, 10]: 100
- Kochia plant response rating (kochia (Kochia scoparia); [7]): 90
- Plant response rating, Kochia (kochia (Kochia scoparia); [8]): 100
- Plant response rating, Kochia (kochia (Kochia scoparia); [9]): 100
- Kochia plant response rating (kochia (Kochia scoparia); [10]): 100
- Oat, Wild plant response rating [5, 7]: 75
- Plant response rating, Oat, Wild [5, 8]: 90
- Plant response rating, Oat, Wild [5, 9]: 95
- Oat, Wild plant response rating [5, 10]: 90

Compound: Cc1cc(C)c2ccccc2c1-c1c(O)cnn(C)c1=O [Compound 51]
- Plant response rating, Corn (corn (Zea mays); [11]): 0
- Corn plant response rating (corn (Zea mays)): 0
- Plant response rating, Barnyardgrass [1]: 0
- Plant response rating, Ducksalad [2]: 0
- Plant response rating, Rice (rice (Oryza sativa)): 0
- Plant response rating, Sedge, Umbrella [3]: 0
- Chickweed plant response rating [4, 7]: 50
- Plant response rating, Chickweed [4, 8]: 70
- Plant response rating, Chickweed [4, 9]: 90
- Chickweed plant response rating [4, 10]: 55
- Kochia plant response rating (kochia (Kochia scoparia); [7]): 0
- Plant response rating, Kochia (kochia (Kochia scoparia); [8]): 50
- Plant response rating, Kochia (kochia (Kochia scoparia); [9]): 75
- Kochia plant response rating (kochia (Kochia scoparia); [10]): 15
- Oat, Wild plant response rating [5, 7]: 0
- Plant response rating, Oat, Wild [5, 8]: 5
- Plant response rating, Oat, Wild [5, 9]: 10
- Oat, Wild plant response rating [5, 10]: 5

Compound: COc1nn(C)c(=O)c(-c2c(C)ccc3ccccc23)c1O [Compound 54]
- Plant response rating, Corn (corn (Zea mays); [11]): 20
- Corn plant response rating (corn (Zea mays)): 30
- Plant response rating, Barnyardgrass [1]: 0
- Plant response rating, Ducksalad [2]: 0
- Plant response rating, Rice (rice (Oryza sativa)): 0
- Plant response rating, Sedge, Umbrella [3]: 0
- Chickweed plant response rating [4, 7]: 95
- Plant response rating, Chickweed [4, 8]: 95
- Plant response rating, Chickweed [4, 9]: 100
- Chickweed plant response rating [4, 10]: 95
- Kochia plant response rating (kochia (Kochia scoparia); [7]): 50
- Plant response rating, Kochia (kochia (Kochia scoparia); [8]): 90
- Plant response rating, Kochia (kochia (Kochia scoparia); [9]): 95
- Kochia plant response rating (kochia (Kochia scoparia); [10]): 90
- Oat, Wild plant response rating [5, 7]: 45
- Plant response rating, Oat, Wild [5, 8]: 60
- Plant response rating, Oat, Wild [5, 9]: 85
- Oat, Wild plant response rating [5, 10]: 50

Compound: Cc1ccc2ccccc2c1-c1c(O)cnn(C)c1=O [Compound 56]
- Plant response rating, Corn (corn (Zea mays); [11]): 0
- Corn plant response rating (corn (Zea mays)): 10
- Plant response rating, Barnyardgrass [1]: 0
- Plant response rating, Ducksalad [2]: 0
- Plant response rating, Rice (rice (Oryza sativa)): 0
- Plant response rating, Sedge, Umbrella [3]: 0
- Chickweed plant response rating [4, 7]: 5
- Plant response rating, Chickweed [4, 8]: 55
- Plant response rating, Chickweed [4, 9]: 70
- Chickweed plant response rating [4, 10]: 10
- Kochia plant response rating (kochia (Kochia scoparia); [7]): 70
- Plant response rating, Kochia (kochia (Kochia scoparia); [8]): 90
- Plant response rating, Kochia (kochia (Kochia scoparia); [9]): 100
- Kochia plant response rating (kochia (Kochia scoparia); [10]): 90
- Oat, Wild plant response rating [5, 7]: 5
- Plant response rating, Oat, Wild [5, 8]: 20
- Plant response rating, Oat, Wild [5, 9]: 40
- Oat, Wild plant response rating [5, 10]: 10

Compound: Cc1ccc2ccccc2c1-c1c(O)c(C)nn(C)c1=O [Compound 59]
- Plant response rating, Corn (corn (Zea mays); [11]): 20
- Corn plant response rating (corn (Zea mays)): 60
- Plant response rating, Barnyardgrass [1]: 0
- Plant response rating, Ducksalad [2]: 0
- Plant response rating, Rice (rice (Oryza sativa)): 0
- Plant response rating, Sedge, Umbrella [3]: 0
- Chickweed plant response rating [4, 7]: 90
- Plant response rating, Chickweed [4, 8]: 98
- Plant response rating, Chickweed [4, 9]: 98
- Chickweed plant response rating [4, 10]: 98
- Kochia plant response rating (kochia (Kochia scoparia); [7]): 95
- Plant response rating, Kochia (kochia (Kochia scoparia); [8]): 85
- Plant response rating, Kochia (kochia (Kochia scoparia); [9]): 90
- Kochia plant response rating (kochia (Kochia scoparia); [10]): 85
- Oat, Wild plant response rating [5, 7]: 80
- Plant response rating, Oat, Wild [5, 8]: 90
- Plant response rating, Oat, Wild [5, 9]: 98
- Oat, Wild plant response rating [5, 10]: 75
